Data from patent US10766940B2, “Brain penetrant amylin receptor based peptides for Alzheimer's disease” (The Governors of the University of Alberta, priority 2016, dated 2020).
Positions of bridges follow the written chain, without caps; N, C: chain ends. Non-standard residues stand in square brackets, D forms with d. Residues, ends and D or L forms follow the SMILES beside them. No end group written: not given here. Cy5.5 = near-infrared dye, attached as Cy5.5-NHS ester; βAla = NCCC(=O)O

Legend:
[1] = In vivo and ex vivo NIRF brain imaging after ip injection, wild-type mice; details: for ability to penetrate the blood brain barrier: single ip administration, wild-type mice, NIR fluorescence
Protocol: For in vivo imaging experiments, 6-12 month-old TgCRND8, age-matched wild-type littermate, and heterozygous CTR knockdown mice (50% CTR expression level compared to wild type control mice and presumably with 50% AMY receptor expression level) were used (n=5 in each group). The animals were anesthetized with ketamine ip injection. The fur was shaved from the head and dorsal side of the body to avoid laser scattering caused by hair. […] Wild type mice injected with 200 μl saline were used as a background.
Images were acquired with a Kodak IS2000MM Image station (GE Healthcare Systems/ART Inc.), excitation filter 625/20 band pass, emission filter 700 W band pass, light source was 150 W quartz halogen lamp set to 100 (max). Images were captured with a CCD camera set to F stop=0, FOV=150, FP=0. Exposure time was 2 min per image for NIRF image and 1 s for visible image. To evaluate for fluorescence concentration, the region of interest was drawn around the brain region and analyzed using the Kodak ID 3.6 software and the mean fluorescence intensity was recorded.

[2] = Lipophilicity, shake flask 1-octanol/water partition; format: physicochemical
Protocol: Peptides hydrophobicity was determined using the shake flask method and 1-octanol/water partition coefficient (log Po/w) was determined. […] Peptide concentration (area) in both phases (1-octanol and water) were analyzed by RP-HPLC. The final log Po/w value was calculated by dividing the concentration (C) of the peptide in the two phases as presented by the area under the peak (partition coefficients=C1-octanol/Cwater).

[3] = In vivo competition with unlabeled cAC253, ex vivo brain fluorescence; design: species or system mouse; details: 40 μg Cy5.5 cAC253 + 5-fold excess (200 μg) unlabeled cAC253 ip, 2 hr
Protocol: Additionally, a competition in vivo experiment was also carried out. […] Brains were then extracted and scanned ex-vivo for fluorescence concentration. For ex vivo histological study, brains were excised and embedded in OCT, then sliced into 20-μm slices, co-stained with DAPI in mounting medium.

[4] = In vivo pharmacokinetics and bio-distribution of cAC253
Protocol: There were 3 mice in each dose group. After 2 hours the mice were sacrificed to collect their brains which were imaged in a Kodak imager. […] The heart, liver, lung, spleen, intestine, stomach, kidney and brain were excised after perfusion with PBS, and kept in dry ice before Kodak imaging. Fluorescence was quantified, and analyzed as previously.

[5] = Peptide stability in human serum; format: in vitro ADME; details: 37° C.
Protocol: For the serum stability experiments, human serum or liver homogenate (250 μL) were added to DMEM medium (650 μL) in a 1.5 mL Eppendorf tube to mimic a biological system. The temperature was equilibrated at 37±1° C. for 30 minutes before adding 100 μL of the peptide stock solution (1 mM solution in 10% DMSO in sterile water). An aliquot of reaction solution (100 μL) was removed from the sample at different time points 0, 3, 5, 10, 20, and 30 minutes added to pure methanol (300 μL) for precipitation of the serum proteins present in the human serum proteins by centrifugation (10,000 rpm, 5 minutes). The clear supernatant was analyzed by reversed phase HPLC, and the appropriate fractions were collected for identification using MALDI-TOF. Proteolysis kinetics of the peptides was analyzed by following the decrease in the concentration of the intact peptide as a function of time. The t1/2 half-lives of peptides were calculated.

[6] = after ip injection, 2 h, brain homogenate fluorescence vs standard
AMY1 = target: T1, AMY1 (Homo sapiens, UniProt O60894+P30988); assay: Peptide array-cell binding assay, AMY1 transfected cells; details: membrane screening AMY1-3 subtypes
T1 construct: expressed in transfected cells
T1 sequence (P30988 25-474): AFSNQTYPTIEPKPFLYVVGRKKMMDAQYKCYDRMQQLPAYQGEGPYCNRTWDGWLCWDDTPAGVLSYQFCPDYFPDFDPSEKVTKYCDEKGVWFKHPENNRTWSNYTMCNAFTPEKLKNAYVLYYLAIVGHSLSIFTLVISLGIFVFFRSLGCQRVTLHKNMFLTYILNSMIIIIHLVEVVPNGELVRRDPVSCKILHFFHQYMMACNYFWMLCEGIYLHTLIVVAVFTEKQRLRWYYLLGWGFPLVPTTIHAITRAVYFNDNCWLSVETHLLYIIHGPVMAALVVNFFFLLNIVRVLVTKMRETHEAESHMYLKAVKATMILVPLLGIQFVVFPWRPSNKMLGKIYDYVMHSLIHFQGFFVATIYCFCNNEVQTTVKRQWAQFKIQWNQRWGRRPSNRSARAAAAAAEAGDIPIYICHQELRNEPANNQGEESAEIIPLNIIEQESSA
T1 sequence (O60894 27-148 partner): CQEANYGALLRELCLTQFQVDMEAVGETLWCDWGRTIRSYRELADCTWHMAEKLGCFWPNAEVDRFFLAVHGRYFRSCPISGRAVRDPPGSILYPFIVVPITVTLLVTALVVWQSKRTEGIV

Compound: CC[C@H](C)[C@H](NC(=O)[C@H](C)NC(=O)[C@@H](N)Cc1c[nH]cn1)C(=O)N[C@@H](Cc1ccc(O)cc1)C(=O)N1CCC[C@H]1C(=O)N[C@@H](CCCNC(=N)N)C(=O)N[C@@H](Cc1c[nH]cn1)C(N)=O [T7, HAIYPRH, reference compound]
- clearance from the brain at 6 h ([1]; mouse, in vivo, ip): rapid clearance from the brain

Compound: CC(C)C[C@@H]1NC(=O)[C@H](N)CSSC[C@H](C(N)=O)NC(=O)[C@H](Cc2ccc(O)cc2)NC(=O)[C@H]([C@@H](C)O)NC(=O)[C@H](CC(N)=O)NC(=O)[C@H](CO)NC(=O)CNC(=O)[C@H]([C@@H](C)O)NC(=O)[C@H](CC(N)=O)NC(=O)[C@H]([C@@H](C)O)NC(=O)[C@H](CCCNC(=N)N)NC(=O)[C@@H]2CCCN2C(=O)[C@H](Cc2ccc(O)cc2)NC(=O)[C@H]([C@@H](C)O)NC(=O)[C@H](CCC(N)=O)NC(=O)[C@H](CC(C)C)NC(=O)[C@H](CCCNC(=N)N)NC(=O)[C@H](Cc2c[nH]cn2)NC(=O)[C@H](CC(C)C)NC(=O)[C@H](CCC(=O)O)NC(=O)[C@H](CCC(N)=O)NC(=O)[C@H](CO)NC(=O)[C@H](CC(C)C)NC(=O)[C@H](CCCNC(=N)N)NC(=O)CNC1=O [cAC253] (H-[dC]LGRLSQELHRLQTYPRTNTGSNTY[dC]-NH2; disulfide 1-26; N-terminus assumed)
- logP ([2]; 1-octanol/water shake flask, read-out: log P): -1.05
- Partition coefficient ([2]; Table 2, 1-octanol/PBS shake flask): 1.22
- ex-vivo brain fluorescence signal relative to saline injection ([1]; 2 h post ip injection, 0.1 mmol in 200 μl saline): 2.8 fold
- further increase of brain fluorescence level at 6 h ([1]; 6 h post-ip injection, 0.01 mmol): 20%
- ability to penetrate the blood brain barrier [1]: penetrate the blood brain barrier
- reduction of brain fluorescence signal by excess unlabeled cAC253 [3]: 75%
- bio-distribution in organs ([4]; 2 h after injecting 20 mg/kg): mainly observed in the eliminating organs such as kidneys, liver and in the injection sites (intestine)
- stability in human serum relative to AC253 [5]: seven-fold increase
- stability in human serum relative to AC253 ([5]; listed as Cyclic-AC253): 7 times
- half-life ([5]; human, serum, RP-HPLC of intact peptide): 7 h
- brain concentration [6]: 10 to 100 nM

Compound: RLQTYPRTNTGS (RLQTYPRTNTGS-NH2) [R10]
- binding to AMY1 cells on peptide array (fluorescence) (AMY1): AMY1 specific peptide

Compound: Cy5-cAC253: cAC253 with extra β-alanine spacer, N-terminally labeled with near-infrared dye Cy5.5-NHS ester ({Cy5.5-βAla}-[dC]LGRLSQELHRLQTYPRTNTGSNTY[dC]-NH2; disulfide 1-26)
- half-life of brain fluorescence signal ([4]; mouse, in vivo, ip, 20 mg/kg): 16 h

Compound: C[N+]1=C(C=CC=CC=C2N(CCCCCC(=O)ON3C(=O)CCC3=O)c3ccc4ccccc4c3C2(C)C)C(C)(C)c2c1ccc1ccccc21.[Cl-] [Cy5 dye, Cyanine5.5 NHS ester dye, reference compound]
- ability to penetrate the blood brain barrier [1]: could not on its own cross the BBB
